Assay results reported in patent US12331061B2, “Compounds having BET, estrogen receptor, and androgen receptor degradation activity and uses thereof” (ACCUTAR BIOTECHNOLOGY INC., priority 2019, dated 2025).

Experiments:
Assay in all cases: Degradation of BET proteins in MCF7 cells, Western blot with densitometry
Assay type in all cases: cell-based
BRD2 = target: T1, BRD2 (Homo sapiens, UniProt P25440); conditions: for degradative activity towards BRD2 over a 24 hour time course: 24 hour time course experiment, shown only in FIG. 1c; for degradative activity towards BRD2: MCF7 cell line, 6 hours after administration, shown only in FIG. 1a, 1b, 2
T1 construct: MCF7 cells were plated in 24-well plates; endogenous in cells; host or cells: MCF7
T1 sequence (P25440 whole entry): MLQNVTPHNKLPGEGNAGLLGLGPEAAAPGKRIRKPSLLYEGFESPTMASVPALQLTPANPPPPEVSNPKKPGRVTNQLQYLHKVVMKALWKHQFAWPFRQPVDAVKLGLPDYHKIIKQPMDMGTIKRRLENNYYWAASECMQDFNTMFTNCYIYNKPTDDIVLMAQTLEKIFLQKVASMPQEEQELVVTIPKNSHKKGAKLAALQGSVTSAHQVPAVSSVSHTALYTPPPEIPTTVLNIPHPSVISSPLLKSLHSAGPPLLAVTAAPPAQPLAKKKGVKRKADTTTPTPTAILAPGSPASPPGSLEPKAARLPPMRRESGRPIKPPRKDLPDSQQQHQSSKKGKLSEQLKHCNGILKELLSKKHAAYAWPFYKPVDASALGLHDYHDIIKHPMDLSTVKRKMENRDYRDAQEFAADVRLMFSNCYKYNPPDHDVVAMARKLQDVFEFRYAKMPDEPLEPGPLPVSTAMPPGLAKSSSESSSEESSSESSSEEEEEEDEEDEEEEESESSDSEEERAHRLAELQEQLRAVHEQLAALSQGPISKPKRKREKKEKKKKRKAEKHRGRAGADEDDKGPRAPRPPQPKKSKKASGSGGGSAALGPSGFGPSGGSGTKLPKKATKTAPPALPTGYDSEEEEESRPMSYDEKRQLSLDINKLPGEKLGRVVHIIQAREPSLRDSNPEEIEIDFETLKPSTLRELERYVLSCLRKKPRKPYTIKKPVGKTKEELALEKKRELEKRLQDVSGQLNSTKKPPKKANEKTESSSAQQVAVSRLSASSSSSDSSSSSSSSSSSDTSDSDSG
Protocol: (§1) MCF7 cells were plated in 24-well plates at 1.5×10^5 cells/well in DMEM growth medium containing 10% FBS and 1% Penicillin Streptomycin, and incubated overnight at 37° C. The following day, test compound was administered to the cells using 1000× compound stock solution prepared in DMSO at various concentrations. […] Cells were then washed with PBS and protein was collected in Laemmli sample buffer (1×; VWR International). Protein was isolated from cell lysate (approximately 25 μg) by SDS-PAGE and transferred to nitrocellulose membranes. Non-specific binding was blocked by incubating with blocking buffer (5% milk in Tris-buffered saline with 0.1% Tween 20 (“TBS-T”)) at room temperature for 60 minutes. The membrane was then incubated with primary antibodies (rabbit anti-BRD2 (1:1000, Cell Signaling), mouse anti-GAPDH (1:5,000, Santa Cruz), mouse anti-BRD3 (1:500, Abcam) and rabbit anti-BRD4 (1:500, Abcam)) overnight at 4° C., followed by washing (3 times) with TBS-T, and incubation with horseradish peroxidase-conjugated […] IgG (1:5,000, Jackson Immunoresearch) or goat anti-mouse IgG (1:5,000, Jackson Immunoresearch) for 60 minutes. After washing with TBS-T, blots were developed using an enhanced chemiluminescence kit (ThermoFisher Scientific) and the bands were imaged and quantified by densitometry (Bio-Rad).

BRD3 = target: T2, BRD3 (Homo sapiens, UniProt Q15059); conditions: for degradative activity towards BRD3 over a 24 hour time course: 24 hour time course experiment, shown only in FIG. 1c; for degradative activity towards BRD3: MCF7 cell line, 6 hours after administration, shown only in FIG. 1a, 1b, 2
T2 construct: endogenous in cells; host or cells: MCF7
T2 sequence (Q15059 whole entry): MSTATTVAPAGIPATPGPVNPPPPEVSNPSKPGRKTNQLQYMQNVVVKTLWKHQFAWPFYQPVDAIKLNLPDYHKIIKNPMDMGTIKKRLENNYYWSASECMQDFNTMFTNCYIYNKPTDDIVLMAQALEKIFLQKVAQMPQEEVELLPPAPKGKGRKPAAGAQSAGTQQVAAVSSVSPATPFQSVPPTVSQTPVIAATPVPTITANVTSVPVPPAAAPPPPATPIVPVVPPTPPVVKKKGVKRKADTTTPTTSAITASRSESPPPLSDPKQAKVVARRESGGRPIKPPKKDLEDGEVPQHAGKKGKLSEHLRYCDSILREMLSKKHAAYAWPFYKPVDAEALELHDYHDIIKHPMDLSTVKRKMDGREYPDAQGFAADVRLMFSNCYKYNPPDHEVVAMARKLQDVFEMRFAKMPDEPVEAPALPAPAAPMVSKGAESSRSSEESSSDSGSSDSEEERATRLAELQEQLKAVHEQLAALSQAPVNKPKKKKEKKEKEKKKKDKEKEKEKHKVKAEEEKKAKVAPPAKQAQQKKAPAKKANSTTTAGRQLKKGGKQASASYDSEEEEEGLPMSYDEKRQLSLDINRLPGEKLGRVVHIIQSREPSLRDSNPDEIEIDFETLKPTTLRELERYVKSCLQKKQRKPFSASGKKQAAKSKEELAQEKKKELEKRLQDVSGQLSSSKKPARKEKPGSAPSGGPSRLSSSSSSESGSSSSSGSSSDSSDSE
Protocol: as §1

BRD4 = BRD4 (Homo sapiens, UniProt O60885); design: endogenous in cells; host or cells: MCF7; conditions: 24 hour time course experiment; shown only in FIG. 1c
Protocol: as §1

| Compound | degradative activity towards BRD2 over a 24 hour time course (BRD2) | degradative activity towards BRD2 (BRD2) | degradative activity towards BRD3 over a 24 hour time course (BRD3) | degradative activity towards BRD3 (BRD3) | degradative activity towards BRD4 over a 24 hour time course (BRD4) |
| --- | --- | --- | --- | --- | --- |
| Cc1sc2c(c1C)C(c1ccc(Cl)cc1)=N[C@@H](CC(=O)NCCCCCCCCCCC(=O)Nc1ccc(CC(=O)NC3CCC(=O)NC3=O)cc1)c1nnc(C)n1-2 (stereo partly drawn) [Compound 253034, 11-(2-((S)-4-(4-chlorophenyl)-2,3,9-trimethyl-6H-thieno[3,2-f][1,2,4]triazolo[4,3-a][1,4]diazepin-6-yl)acetamido)-N-(4-(2-((2,6-dioxopiperidin-3-yl)amino)-2-oxoethyl)phenyl)undecanamide] | degradative activity | degradative activity | degradative activity | degradative activity | degradative activity |
| Cc1sc2c(c1C)C(c1ccc(Cl)cc1)=N[C@@H](CC(=O)NCCCCCCCCCCC(=O)Nc1cccc(CC(=O)NC3CCC(=O)NC3=O)c1)c1nnc(C)n1-2 (stereo partly drawn) [Compound 253035, 11-(2-((S)-4-(4-chlorophenyl)-2,3,9-trimethyl-6H-thieno[3,2-f][1,2,4]triazolo[4,3-a][1,4]diazepin-6-yl)acetamido)-N-(3-(2-((2,6-dioxopiperidin-3-yl)amino)-2-oxoethyl)phenyl)undecanamide] | degradative activity | degradative activity | degradative activity | degradative activity | degradative activity |
